Entries after “also recorded” stand apart in the source; their conditions may differ.
Columns and labels:
Type in all cases: cell-based
[1] = molecular target: T1, CHRM2 (Homo sapiens, UniProt P08172); assay: GPCR reactivity screen, PathHunter β-Arrestin, agonist assay CHRM2; parameters: concentration or dose not given beside the values; details: agonist mode; control acetylcholine
T1 sequence (P08172 1-466): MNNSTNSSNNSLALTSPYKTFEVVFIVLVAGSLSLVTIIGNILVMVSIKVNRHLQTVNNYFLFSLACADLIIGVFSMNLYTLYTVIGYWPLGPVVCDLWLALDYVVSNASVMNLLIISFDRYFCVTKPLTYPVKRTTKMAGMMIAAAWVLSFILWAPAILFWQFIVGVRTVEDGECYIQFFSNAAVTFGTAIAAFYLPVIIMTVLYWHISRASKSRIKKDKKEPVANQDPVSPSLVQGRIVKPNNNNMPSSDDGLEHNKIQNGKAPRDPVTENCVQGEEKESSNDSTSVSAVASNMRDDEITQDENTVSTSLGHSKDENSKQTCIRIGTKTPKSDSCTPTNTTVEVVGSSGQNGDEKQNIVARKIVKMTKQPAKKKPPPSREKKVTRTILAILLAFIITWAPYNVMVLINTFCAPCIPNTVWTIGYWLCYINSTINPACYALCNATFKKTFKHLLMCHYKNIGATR
Description: (§1) To evaluate the role specific cannabinoid compounds play in the neurological signaling pathway for itching, a GPCR reactivity assay was performed to determine the reactivity of 19 cannabinoid compounds to each of CHRM2, EDG3, and MRGPRX2. The evaluated cannabinoid compounds were: CBN, THCV, CBDVA, CBG, CBL, CBC, CBDV, CBDA, CBD, CBGA, (+)-CBD, CBG-C4, CBD-C1, CBD-C2, CBGV, CBGA-C4, CBGVA, CBCA, and CBLA. Acetylcholine was used as the control for CHRM2, sphingosine-1-phosphate was used as the control for EDG3; and cortistatin 14 was used as the control for MRGPRX2.
(§2) A total of six assays were run. Specifically, agonist and antagonist assays were run for each of CHRM2, EDG3, and MRGPRX2. In each of the three agonist assays, PathHunter® cell lines were removed from a freezer stock and seeded at a volume of 20 μL into white walled, 384-well microplates and incubated at 37° C. Each cell was incubated with a sample to induce a response and then diluted to generate a 5× sample in assay buffer. 5 μL of the 5× sample was then added to cells and incubated at 37° C. for 90 or 180 minutes. The final assay concentration was 1%. The assay signal was generated through addition of 12.5 μL or 15 μL (50% V/V) of a detection reagent cocktail followed by a one hour incubation time at room temperature. Microplates were read following signal generation with a PerkinElmer Envision™ (PerkinElmer Inc., Waltham, Mass.) for chemiluminescent signal detection. Reactivity was analyzed using the CBIS data analysis suite (ChemInnovation, CA) where RLU refers to the raw measured values. The percent activity was then calculated using the formula: % Activity=100%*(mean RLU of test sample−mean RLU of control)/(mean max control ligand−mean RLU of vehicle control).
(§3) As used herein, strong activity against a receptor is considered a percent activity of about 42% or higher. Higher results for antagonism against CHRM2, EDGE, and MRGPRX2 are considered better. It is further considered better when a cannabinoid inhibits more than one of the receptors.

[2] = molecular target: T1, CHRM2; assay: GPCR reactivity screen, PathHunter β-Arrestin, antagonist assay CHRM2; details: for antagonist activity against CHRM2 (in words): GPCR reactivity screen; for CHRM2 (Antagonist) percent inhibition: antagonist mode, agonist challenge at EC80
Description: as §1
(§4) In each of the antagonist assays, PathHunter® cell lines were removed from a freezer stock and seeded at a volume of 20 μL into white walled, 384-well microplates and incubated at 37° C. Each cell was pre-incubated with an antagonist followed by an agonist challenge at the EC80 concentration. Cells were then diluted to generate a 5× sample in assay buffer. 5 μL of the 5× sample was then added to cells and incubated at 37° C. for 30 minutes. Finally, 5 μL of 6×EC80 agonist in assay buffer were added to the cells and incubated at 37° C. for 90 minutes or 180 minutes. The assay signal was generated through addition of 12.5 μL or 15 μL (50% V/V) of a detection reagent cocktail followed by a one hour incubation time at room temperature. Microplates were read following signal generation with a PerkinElmer Envision™ (PerkinElmer Inc., Waltham, Mass.) for chemiluminescent signal detection. Reactivity was analyzed using the CBIS data analysis suite (ChemInnovation, CA) where RLU refers to the raw measured values. The percent inhibition was calculated using the formula: % Inhibition=100%*(1−mean RLU of test sample−mean RLU of control)/(mean RLU of EC80 control−mean RLU of vehicle control).
as §3

[3] = molecular target: T2, EDG3 (Homo sapiens, UniProt Q99500); assay: GPCR reactivity screen, PathHunter β-Arrestin, agonist assay EDG3; parameters: concentration or dose not given beside the values; details: agonist mode; control sphingosine-1-phosphate
Description: as §1, §2, §3

[4] = molecular target: T2, EDG3; assay: GPCR reactivity screen, PathHunter β-Arrestin, antagonist assay EDG3; details: for antagonist activity against EDG3 (in words): GPCR reactivity screen; for EDG3 (Antagonist) percent inhibition: antagonist mode, agonist challenge at EC80
Description: as §1, §4, §3

[5] = molecular target: T3, MRGPRX2 (Homo sapiens, UniProt Q96LB1); assay: GPCR reactivity screen, PathHunter β-Arrestin, agonist assay MRGPRX2; details: agonist mode; control cortistatin 14
T3 sequence (Q96LB1 1-330): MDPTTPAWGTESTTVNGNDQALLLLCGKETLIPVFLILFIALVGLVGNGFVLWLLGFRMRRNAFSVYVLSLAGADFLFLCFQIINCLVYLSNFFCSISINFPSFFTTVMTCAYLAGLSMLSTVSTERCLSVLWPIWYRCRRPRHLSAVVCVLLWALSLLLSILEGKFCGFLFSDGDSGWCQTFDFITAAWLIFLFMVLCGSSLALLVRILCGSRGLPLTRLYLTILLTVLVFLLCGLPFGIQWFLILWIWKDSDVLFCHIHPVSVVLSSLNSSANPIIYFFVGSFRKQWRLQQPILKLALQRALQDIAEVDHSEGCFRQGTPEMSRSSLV
Description: as §1, §2, §3

[6] = molecular target: T3, MRGPRX2; assay: GPCR reactivity screen, PathHunter β-Arrestin, antagonist assay MRGPRX2; details: for antagonist activity against MRGPRX2 (in words): GPCR reactivity screen; for MRGPRX2 (Antagonist) percent inhibition: antagonist mode, agonist challenge at EC80
Description: as §1, §4, §3

[7] = molecular target: T2, EDG3; assay: IC50 antagonist activity screen, PathHunter β-Arrestin, EDG3; details: for maximum inhibition (antagonism) EDG3: maximum of IC50 curve; for antagonism of EDG3 (in words): IC50 data
Description: as §4
as §3, with “IC50 curves were measured using the same GPCR assay, PathHunter® β-Arrestin from Eurofins DiscoverX Products (Fremont, Calif.), as the GPCR reactivity screen. As” for “As”, “maximum” for “percent”

[8] = molecular target: T3, MRGPRX2; assay: IC50 antagonist activity screen, PathHunter β-Arrestin, MRGPRX2; details: for maximum inhibition (antagonism) MRGPRX2: maximum of IC50 curve; for antagonism of MRGPRX2 (in words): IC50 data
Description: as §4
as §3, with “IC50 curves were measured using the same GPCR assay, PathHunter® β-Arrestin from Eurofins DiscoverX Products (Fremont, Calif.), as the GPCR reactivity screen. As” for “As”, “maximum” for “percent”

[9] = molecular target: T1, CHRM2; assay: IC50 antagonist activity screen, PathHunter β-Arrestin, CHRM2; details: for maximum inhibition (antagonism) CHRM2: maximum of IC50 curve; for antagonism of CHRM2 (in words): IC50 data
Description: as §4
as §3, with “IC50 curves were measured using the same GPCR assay, PathHunter® β-Arrestin from Eurofins DiscoverX Products (Fremont, Calif.), as the GPCR reactivity screen. As” for “As”, “maximum” for “percent”

T2 sequence (Q99500 whole entry): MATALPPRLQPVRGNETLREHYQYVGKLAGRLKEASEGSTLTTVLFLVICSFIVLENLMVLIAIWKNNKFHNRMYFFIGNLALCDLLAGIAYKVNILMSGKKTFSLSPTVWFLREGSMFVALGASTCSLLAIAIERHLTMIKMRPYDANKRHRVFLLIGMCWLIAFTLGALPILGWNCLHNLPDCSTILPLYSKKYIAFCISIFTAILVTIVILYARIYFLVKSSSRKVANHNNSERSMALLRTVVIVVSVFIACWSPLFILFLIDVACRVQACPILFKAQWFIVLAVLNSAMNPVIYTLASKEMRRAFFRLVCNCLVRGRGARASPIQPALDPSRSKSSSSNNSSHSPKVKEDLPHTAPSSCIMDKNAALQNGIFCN

| SMILES | CHRM2 (Agonist) percent activity [1] [%] | antagonist activity against CHRM2 (in words) [2] | CHRM2 (Antagonist) percent inhibition [2] [%] | EDG3 (Agonist) percent activity [3] [%] | antagonist activity against EDG3 (in words) [4] | EDG3 (Antagonist) percent inhibition [4] [%] | MRGPRX2 (Agonist) percent activity [5] [%] | antagonist activity against MRGPRX2 (in words) [6] | MRGPRX2 (Antagonist) percent inhibition [6] [%] | maximum inhibition (antagonism) EDG3 [7] [%] | maximum inhibition (antagonism) MRGPRX2 [8] [%] | maximum inhibition (antagonism) CHRM2 [9] [%] | antagonism of CHRM2 (in words) [9] | antagonism of EDG3 (in words) [7] | antagonism of MRGPRX2 (in words) [8] |
| --- | --- | --- | --- | --- | --- | --- | --- | --- | --- | --- | --- | --- | --- | --- | --- |
| CCCCCc1cc2c(c(O)c1C(=O)O)C=CC(C)(CCC=C(C)C)O2 (centres unmarked) [CBCA, cannabichromenic acid] | −1 | do not exhibit an antagonistic effect | 7 | 1 | do not exhibit an antagonistic effect | 32 | 4 | do not exhibit an antagonistic effect; also recorded: antagonist activity | 49 | 25 | 35 | – | – | – | – |
| C=C(C)[C@@H]1CCC(C)=C[C@H]1c1c(O)cc(CCCCCC)cc1O [CBD-C6, cannabidol hexyl] | – | – | – | – | – | – | – | – | – | 11 | 98 | 64 | – | – | – |
| C=C(C)[C@@H]1CCC(C)=C[C@H]1c1c(O)cc(CCCCCCC)cc1O [CBD-C7, cannabidol heptyl] | – | – | – | – | – | – | – | – | – | 20 | 98 | 90 | – | – | – |
| C=C(C)[C@@H]1CCC(C)=C[C@H]1c1c(O)cc(CCCCCCCCC)cc1O [CBD-C9, cannabidol nonyl] | – | – | – | – | – | – | – | – | – | 0 | 96 | 90 | remaining as an antagonist | did not act as an antagonist | remaining as an antagonist |
| C=C(C)[C@@H]1CCC(C)=C[C@H]1c1c(O)cc(CCC)cc1O [CBDV, cannabidivarin] | 3 | – | 34 | 1 | – | 24 | 3 | antagonist activity | 71 | – | 59 | 27 | – | – | – |
| CCCCCCc1cc(O)c(C/C=C(\C)CCC=C(C)C)c(O)c1 [CBG-C6, cannabigerol hexyl] | – | – | – | – | – | – | – | – | – | 15 | 66 | 0 | – | – | – |
| CCCCCCCc1cc(O)c(C/C=C(\C)CCC=C(C)C)c(O)c1 [CBG-C7, cannabigerol heptyl] | – | – | – | – | – | – | – | – | – | 32 | 99 | 10 | – | – | – |
| CCCCCCCCCc1cc(O)c(C/C=C(\C)CCC=C(C)C)c(O)c1 [CBG-C9, cannabigerol nonyl] | – | – | – | – | – | – | – | – | – | 55 | 100 | 32 | – | – | – |
| CCCCCCc1cc(O)c(C/C=C(\C)CCC=C(C)C)c(O)c1C(=O)O [CBGA-C6, cannabigerolic acid hexyl] | – | – | – | – | – | – | – | – | – | 33 | 13 | 6 | do not exhibit an antagonistic effect | do not exhibit an antagonistic effect | do not exhibit an antagonistic effect |
| CCCCCCCc1cc(O)c(C/C=C(\C)CCC=C(C)C)c(O)c1C(=O)O [CBGA-C7, cannabigerolic acid heptyl] | – | – | – | – | – | – | – | – | – | 30 | 37 | 4 | do not exhibit an antagonistic effect | do not exhibit an antagonistic effect | do not exhibit an antagonistic effect |
| CCCCCCCCCc1cc(O)c(C/C=C(\C)CCC=C(C)C)c(O)c1C(=O)O [CBGA-C9, cannabigerolic acid nonyl] | – | – | – | – | – | – | – | – | – | 58 | 56 | 11 | – | – | – |
| CCCCCc1cc(O)c2c(c1)OC1(C)CCC3C1C2C3(C)C (centres unmarked) [CBL, cannabicyclol] | 13 | antagonist activity | 84 | −1 | – | 9 | 11 | antagonist activity | 82 | – | 81 | 47 | – | – | – |
| CCCCCc1cc(O)c2c(c1)OC(C)(C)c1ccc(C)cc1-2 [CBN, cannabinol] | 0 | – | 7 | 5 | – | 12 | 22 | antagonist activity | 73 | – | 78 | – | – | – | – |
| CCCc1cc(O)c2c(c1)OC(C)(C)[C@@H]1CCC(C)=C[C@@H]21 [THCV, tetrahydrocannabivarin] | 18 | do not exhibit an antagonistic effect | 42 | 1 | do not exhibit an antagonistic effect | 20 | 18 | do not exhibit an antagonistic effect; also recorded: antagonist activity; also recorded: demonstrated antagonism | 55 | – | 21 | 0 | – | – | inhibition was not observed |
